# Experiments:
# [1] = tested on: Q7 cells (ST HDH Q7/7; immortalized mouse striatal cells); test: Q7 Cystine Deprivation cell survival (rescue) assay; assay type: cell-based; details: Q7 cells, cystine-free medium, 18 h, Cell Titer Glo, 50% relative viability vs Vitamin K2 (1 micromolar), read-out: Q7 Cystine Deprivation Survival EC50
# Summary of the method: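 Cells were seeded at 3,000/well and allowed to attach for 5 h at 33 °C. Wells were then washed twice with PBS and switched to cystine-free DMEM containing FBS, 4 mM L-glutamine, 1 mM pyruvate and 30 mg/L methionine to induce ferroptotic death. Compounds were scored for survival rescue.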
# CYP3A4 = target: T1, CYP3A4 (Homo sapiens, UniProt P08684); test: CYP450 Inhibition Assay 2 (pooled human liver microsomes, 5 concentrations); assay type: in vitro ADME; details: Table 3, HLM 0.05 mg protein/mL, 10 min reaction; for IC50 at 10 min: human, pooled human liver microsomes
# T1 construct: from tissue; host or cells: pooled human liver microsomes
# T1 sequence (P08684 whole entry): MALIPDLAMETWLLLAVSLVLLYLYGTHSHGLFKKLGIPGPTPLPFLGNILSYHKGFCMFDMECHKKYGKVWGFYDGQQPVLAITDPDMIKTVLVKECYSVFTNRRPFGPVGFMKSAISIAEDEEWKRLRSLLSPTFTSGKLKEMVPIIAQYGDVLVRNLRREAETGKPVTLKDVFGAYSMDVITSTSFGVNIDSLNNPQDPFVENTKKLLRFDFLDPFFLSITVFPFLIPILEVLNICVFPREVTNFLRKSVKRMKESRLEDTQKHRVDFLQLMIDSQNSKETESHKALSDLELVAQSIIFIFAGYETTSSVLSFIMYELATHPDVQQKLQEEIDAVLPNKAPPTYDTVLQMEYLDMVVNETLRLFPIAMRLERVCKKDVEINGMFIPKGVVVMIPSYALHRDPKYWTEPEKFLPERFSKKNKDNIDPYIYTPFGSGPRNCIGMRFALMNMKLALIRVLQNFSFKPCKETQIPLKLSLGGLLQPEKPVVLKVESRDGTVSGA
# Protocol: In an alternative experimental design, test compounds were evaluated at 5 concentrations in a 96 well assay plate. Initial combination with pooled human liver microsomes (0.05 mg protein/mL) was followed by a 5 minute incubation. […] The assay plate was incubated for an additional 30 minutes before the reaction was initiated with the addition of NADPH. After 10 minutes of reaction time, the reaction was quenched and samples were analyzed in a similar manner as described above.
# [2] = tested on: Q7 cells (ST HDH Q7/7; immortalized mouse striatal cells); test: Q7 RSL3 challenge cell survival (rescue) assay; assay type: cell-based; details: Q7 cells, RSL3 2 micromolar, 18 h, Cell Titer Glo, read-out: Q7 RSL3 Survival EC50
# Description: In neuronal cells excess extracellular glutamate inhibits the cystine/glutamate antiporter leading to intracellular cysteine depletion, GSH depletion, reactive oxygen species (ROS) production and cell death, a phenomenon termed oxidative glutamate toxicity, oxytosis, or ferroptosis. […] Q7 cells (ST HDH Q7/7; immortalized mouse striatal cells) challenged with cystine-free media or the selective, irreversible GPX4 inhibitor, methyl (1S,3R)-2-(2-chloroacetyl)-1-(4-(methoxycarbonyl)phenyl)-2,3,4,9-tetrahydro-1H-pyrido[3,4-b]indole-3-carboxylate (hereafter referred to as RSL3), recapitulate this phenotype, as do normal human fibroblasts (NHF) challenged with RSL3. An initial screen was performed to identify compounds effective in rescuing Q7 and/or NHF cells from death resulting from cystine deprivation or RSL3 challenge. This method is further described in Yonezawa et al., J. Neurochem 67, 566-573 (1996), Li et al., J Neurosci., 23, 5816-5826 (2003), Yang and Stockwell, Chem Biol., 15: 234-45 (2008), and Yang et al., Cell 156, 317-331 (2014). See also Hinman A, Holst C R, Latham J C, et al. Vitamin E hydroquinone is an endogenous regulator of ferroptosis via redox control of 15-lipoxygenase. PLoS One. 2018; 13(8):e0201369. Published 2018 Aug. 15. doi:10.1371/journal.pone.0201369; and Kahn-Kirby A H, Amagata A, Maeder C I, et al. Targeting ferroptosis: A novel therapeutic strategy for the treatment of mitochondrial disease-related epilepsy. PLoS One. 2019; 14(3):e0214250. Published 2019 Mar. 28. doi:10.1371/journal.pone.0214250.
# DMEM (Catalog no. 11995-040), DMEM without Cystine (Catalog no. 21013-024), DMEM without Glucose (Catalog A1443001), PBS (Phosphate buffered saline), Penicillin-streptomycin mix, L-Glutamine, Glucose, Phenol Red, and Pyruvate were purchased from ThermoFisher Scientific (Gibco). Fetal Bovine Serum was obtained from Mediatech, Inc., or Sigma Aldrich. Mouse striatum derived ST HDH Q7/7 (Q7) and normal human skin fibroblast (NHF, product number GM21811) cells were obtained from the Coriell Institute. Methionine and Vitamin K2 were purchased from Sigma Aldrich. RSL3 was synthesized as previously described (see e.g. US Patent Publication US2010/0081654). Cell Titer Glo 2.0 was purchased from Promega. Q7 cell culture medium (Q7 growth medium) was made by combining 50 mL Fetal Bovine Serum, 100 U/mL penicillin, and 100 microgram/mL streptomycin; DMEM was added to make the volume up to 500 mL. Assay medium for the Cystine Deprivation assay was prepared by combining 50 mL Fetal Bovine Serum, 100 U/mL penicillin, 100 microgram/mL streptomycin, 4 mM L-Glutamine, 1 mM Pyruvate and 30 mg/L Methionine; DMEM without Cystine was added to make the volume up to 500 mL. NHF cell culture medium (NHF growth medium) was made by combining 50 mL Fetal Bovine Serum, 100 U/mL penicillin, 100 microgram/mL streptomycin, 2.8 mL 20% Glucose solution (final concentration 6 mM), L-glutamine (final concentration 2 mM), phenol red (final concentration 15 mg/L); DMEM without Glucose was added to make the volume up to 500 mL. Assay medium for the RSL3 challenge assay was identical to Growth medium. While not in use during the course of the experiments, these solutions were stored at 4° C. The cells were grown in 150-cm^2 tissue culture-treated flasks. Every third or fourth day, the cells were sub-cultured by trypsinization and re-seeded at a cell density of 600,000 (Q7) or 300,000 (NHF) cells per flask.
# Q7 or NHF cells were cultured routinely as described herein. For 384-well cell survival assays, cells were seeded in clear bottom, black wall 384-well tissue culture-treated polystyrene plates by re-suspending a cell suspension at a density of 50,000 cells/mL in growth medium, then dispensing 60 microliters of cell suspension per well using either an electronic multichannel pipette or a Multidrop™ Combi Reagent Dispenser (ThermoFisher Scientific), corresponding to 3,000 cells/well. […]
# [3] = tested on: normal human fibroblasts (NHF, GM21811); test: NHF GM21811 RSL3 challenge cell survival (rescue) assay; assay type: cell-based; details: Fibroblast, NHF cells, RSL3 2 micromolar, 48 h, Cell Titer Glo, read-out: NHF GM21811 RSL3 Survival EC50
# Summary of the method: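 Q7 (33° C.) or NHF (37° C.) cells, 3,000/well, attached 5 h, then test compounds at varying final concentrations followed within 15 min by RSL3 (2 micromolar final); 0.3% DMSO. Assay medium identical to growth medium.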
SMILES,EC50 [1],IC50 (CYP3A4),IC50 at 10 min (CYP3A4),EC50 [2],EC50 [3]
"CC1=C(Cc2cc(C(F)(F)F)ccn2)C(=O)c2ccccc2C1=O [Example 9, 2-methyl-3-((4-(trifluoromethyl)pyridin-2-yl)methyl)naphthalene-1,4-dione]",< 50 nM,37.2 µM,,,
"CC1=C(C(C)c2ccccn2)C(=O)c2ccccc2C1=O (centres unmarked) [Example 24, 2-methyl-3-(1-(pyridin-2-yl)ethyl)naphthalene-1,4-dione]",< 50 nM,20.1 µM,,,
"O=C1C(Cc2ccc(C(F)(F)F)cn2)=C(C2CC2)C(=O)c2ccccc21 [Example 27, 2-cyclopropyl-3-((5-(trifluoromethyl)pyridin-2-yl)methyl)naphthalene-1,4-dione]",< 50 nM,11.9 µM,,,
"CC(C)(C)CC1=C(Cc2ccc(C(F)(F)F)cn2)C(=O)c2ccccc2C1=O [Example 28, 2-neopentyl-3-((5-(trifluoromethyl)pyridin-2-yl)methyl)naphthalene-1,4-dione]",50 to 250 nM,,≥ 50 µM,,
"CC(C)CC1=C(Cc2ccc(C(F)(F)F)cn2)C(=O)c2ccccc2C1=O [Example 29, 2-isobutyl-3-((5-(trifluoromethyl)pyridin-2-yl)methyl)naphthalene-1,4-dione]",< 50 nM,21.4 µM,,,
"CC1(C2=C(Cc3ccc(C(F)(F)F)cn3)C(=O)c3ccccc3C2=O)CC1 [Example 31, 2-(1-methylcyclopropyl)-3-((5-(trifluoromethyl)pyridin-2-yl)methyl)naphthalene-1,4-dione]",< 50 nM,17.4 µM,,,
"CC1=C(Cc2ncccc2C(F)(F)F)C(=O)c2ccccc2C1=O [Example 39, 2-methyl-3-((3-(trifluoromethyl)pyridin-2-yl)methyl)naphthalene-1,4-dione]",< 50 nM,,≥ 50 µM,,
"CC1=C(Cc2ccc(C(F)(F)F)cn2)C(=O)c2c(F)cccc2C1=O [Example 51, 5-fluoro-2-methyl-3-((5-(trifluoromethyl)pyridin-2-yl)methyl)naphthalene-1,4-dione]",< 50 nM,,,< 50 nM,< 50 nM
"CC1=C(Cc2ccc(C(F)(F)F)cn2)C(=O)c2c(F)ccc(F)c2C1=O [Example 52, 5,8-difluoro-2-methyl-3-((5-(trifluoromethyl)pyridin-2-yl)methyl)naphthalene-1,4-dione]",< 50 nM,,,< 50 nM,< 50 nM
"CC1=C(Cc2ccc(C(=O)O)cn2)C(=O)c2ccccc2C1=O [Example 99, 6-((3-methyl-1,4-dioxo-1,4-dihydronaphthalen-2-yl)methyl)nicotinic acid]",> 1000 nM,,≥ 50 µM,,
"CC1=C(Cc2ccc(C(=O)NC3CCCC3)cn2)C(=O)c2ccccc2C1=O [Example 100, N-cyclopentyl-6-((3-methyl-1,4-dioxo-1,4-dihydronaphthalen-2-yl)methyl)nicotinamide]",50 to 250 nM,,≥ 50 µM,,
"CC1=C(Cc2ccc(C(N)=O)cn2)C(=O)c2ccccc2C1=O [Example 101, 6-((3-methyl-1,4-dioxo-1,4-dihydronaphthalen-2-yl)methyl)nicotinamide]",< 50 nM,23 µM,,,
"CCN(C(=O)c1ccc(CC2=C(C)C(=O)c3ccccc3C2=O)nc1)C(C)C [Example 102, N-ethyl-N-isopropyl-6-((3-methyl-1,4-dioxo-1,4-dihydronaphthalen-2-yl)methyl)nicotinamide]",< 50 nM,8.8 µM,,,
"CC1=C(Cc2ccc(C(=O)NC3(C)CCC3)cn2)C(=O)c2ccccc2C1=O [Example 103, 6-((3-methyl-1,4-dioxo-1,4-dihydronaphthalen-2-yl)methyl)-N-(1-methylcyclobutyl)nicotinamide]",250 to 1000 nM,41.5 µM,,,
"CC1=C(Cc2ccc(C(=O)N(C)C(C)C)cn2)C(=O)c2ccccc2C1=O [Example 104, N-isopropyl-N-methyl-6-((3-methyl-1,4-dioxo-1,4-dihydronaphthalen-2-yl)methyl)nicotinamide]",< 50 nM,20.7 µM,,,
"CC1=C(Cc2ccc(C(=O)NCC3CC3)cn2)C(=O)c2ccccc2C1=O [Example 105, N-(cyclopropylmethyl)-6-((3-methyl-1,4-dioxo-1,4-dihydronaphthalen-2-yl)methyl)nicotinamide]",50 to 250 nM,,≥ 50 µM,,
"CCCC1=C(Cc2ccc(C(F)(F)F)cn2)C(=O)c2ccccc2C1=O [Example 109, 2-propyl-3-((5-(trifluoromethyl)pyridin-2-yl)methyl)naphthalene-1,4-dione]",< 50 nM,15.6 µM,,,
"CCCC1=C(Cc2cc(C)c(F)cn2)C(=O)c2ccccc2C1=O [Example 113, 2-((5-fluoro-4-methylpyridin-2-yl)methyl)-3-propylnaphthalene-1,4-dione]",< 50 nM,,,< 50 nM,< 50 nM
"CCCC1=C(Cc2ccc(F)cn2)C(=O)c2ccccc2C1=O [Example 116, 2-((5-fluoropyridin-2-yl)methyl)-3-propylnaphthalene-1,4-dione]",< 50 nM,,,< 50 nM,< 50 nM
"CCCC1=C(Cc2ccc(F)c(C)n2)C(=O)c2ccccc2C1=O [Example 118, 2-((5-fluoro-6-methylpyridin-2-yl)methyl)-3-propylnaphthalene-1,4-dione]",< 50 nM,,,< 50 nM,< 50 nM
"Cc1cc(CC2=C(C3CC3)C(=O)c3ccccc3C2=O)ncc1F [Example 120, 2-cyclopropyl-3-((5-fluoro-4-methylpyridin-2-yl)methyl)naphthalene-1,4-dione]",< 50 nM,,,< 50 nM,< 50 nM
"Cc1ccc(CC2=C(CCC3COC3)C(=O)c3ccccc3C2=O)nc1 [Example 122, 2-((5-methylpyridin-2-yl)methyl)-3-(2-(oxetan-3-yl)ethyl)naphthalene-1,4-dione]",< 50 nM,,,< 50 nM,50 to 250 nM
"CC1=C(Cc2ccc(C#N)cn2)C(=O)c2ccccc2C1=O [Example 123, 6-((3-methyl-1,4-dioxo-1,4-dihydronaphthalen-2-yl)methyl)nicotinonitrile]",< 50 nM,,≥ 50 µM,,
